We go through 19 compounds from patent publication US10550080B2 (BRISTOL-MYERS SQUIBB COMPANY, priority 2016, dated 2020).

One series concerns the target hNaV1.7 (Homo sapiens (Human), UniProt Q15858). The experiment in a line: Ligand Binding Assay (LBA), radioligand displacement on hNaV1.7 HEK293 cell membranes. As to conditions: 0.5 nM [3H] radioligand, 24 hours at room temperature; read-out: NaV1.7 LBA IC50. As for the experimental part:
Ligand Binding Assay (LBA): hNaV1.7 binding affinities were determined with a filtration binding assay using purified membranes from HEK293 cells stably expressing hNaV1.7. HEK293 cells from a 10-stack cell culture flask (approximately 10^10 cells) were dissociated, frozen, and stored at −80° C. To prepare membranes, the frozen cell pellet was thawed and suspended in 6 ml hypotonic lysis buffer (50 mM HEPES, 0.1% mammalian protease inhibitor cocktail). 1 ml of resuspended cells was added to an additional 6 ml of lysis buffer and homogenized with 30 strokes of a tight pestle in a glass homogenizer. Homogenate was centrifuged at 1000×g for 10 minutes at 4° C. and the resulting supernatant was further centrifuged at 38,500×g for 60 minutes at 4° C. The resulting pellet was resuspended in binding buffer (50 mM HEPES, 130 mM NaCl, 5.4 mM KCl, 0.8 mM MgCl2, 5 mM glucose, pH 7.4) and needle homogenized with a 25 gauge needle. Protein concentration was determined with a BCA protein assay. Purified membranes were aliquoted, flash frozen in an ethyl alcohol dry ice bath, and stored at −80° C. To measure displacement of a radiolabeled ligand, 50 μg of purified hNaV1.7 HEK cell membranes were incubated with test compounds (eight concentrations, in duplicate) and 0.5 nM [3H] labeled radioligand in a 96 well plate for 24 hours at room temperature on a shaker. The total binding reaction volume was 250 μl, consisting of 200 μl purified hNaV1.7 HEK cell membranes, 25 μl test compound, and 25 μl radioligand. Non-specific binding was defined by 20 μM of a reference hNaV1.7 inhibitor. Binding reactions were terminated by filtration through GF/B filters presoaked in 0.5% polyethyleneamine. Filters were washed 5 times with 2 ml each of 4′C wash buffer (50 mM Tris-HCl, pH 7.4 at 4° C.). Bound radioactivity captured on the filters was counted on a liquid scintillation counter. Specific binding, expressed as % inhibition, was fit with Graphpad Prism software to determine binding IC50 values. Results are reported in Table 1 (NaV1.7 LBA IC50 in nM).
In general terms: Displacement assays read how much labelled ligand stays bound in the presence of the test substance.

The target in a further series is NaV1.7 (Homo sapiens (Human), UniProt Q15858). Kind of series: Automated electrophysiology, IonWorks Barracuda population patch clamp, NaV1.7 current (inactivated-state protocol). As to conditions: HEK 293 cells expressing NaV1.7; 600 sec compound incubation; read-out: NaV1.7 Barra IC50. It counts as cell-based. The method, then:
(§1) Automated Electrophysiology: Ion Works Barracuda population patch clamp (PPC). PPC measurements were performed using an IonWorks Barracuda instrument (Molecular Devices Corporation, Union City, Calif.) using either PatchPlate™ PPC substrates (Molecular Devices Corporation) with 64 apertures per well. The ability to average currents from 64 recordings from each well greatly improves data consistency and recording success rates in the measurement of NaV1.7 mediated ionic currents. Calculated leak current was digitally subtracted from the total cell NaV1.7 current for each sample point acquired.
(§2) NaV1.7 currents were elicited by a voltage clamp protocol designed to bias the NaV1.7 channels to their inactivated state as follows. From holding potential of −60 mV cells were briefly hyperpolarized to −100 mV for 1.25 sec, then stepped to −20 mV for 20 sec to inactivate the channels. This was followed by a relatively brief hyperpolarization to −100 mv for 300 ms, then a 20 msec test pulse to −20 mV to elicit the NaV1.7 current used to measure the pharmacology of all test compounds. Compounds were incubated for 600 sec between the pre- and post-compound reads. The external recording solution used was (in mM) 137 NaCl, 4 KCl, 1 MgCl2, 1.8 CaCl2, 10 Hepes, 10 glucose, pH to 7.4 with NaOH, and the internal solution used was (in mM) 100 K-gluconate, 40 KCl, 3.2 zMgCl2, 5 EGTA, 10 HEPES pH to 7.2 with KOH. The same solutions were used to record NaV1.5 currents, with the following voltage clamp protocol. NaV1.5 currents were elicited by a voltage clamp protocol designed to bias the NaV1.5 channels to their inactivated state as follows. From holding potential of −40 mV cells were briefly hyperpolarized to −100 mV for 300 ms, then stepped to −10 mV for 20 sec to inactivate the channels. This was followed by a relatively brief hyperpolarization to −100 mv for 30 ms, then a 20 msec test pulse to −10 mV to elicit the NaV1.5 current used to measure the pharmacology of all test compounds.
(§3) HEK 293 cells expressing NaV1.7 and NaV1.5 channels, were used (Essen Biosciences, Ann Arbor, Mich.). Cells were cultured in T-175 flasks and passaged every 2 to 3 days at 1:3 to 1:6 seeding density dilutions. Cells were grown to 70% to 90% confluence in a flask and removed from the incubator (37° C., 5% CO2) 1 to 3 days after plating. Growth medium was aspirated from the culture flasks. Cells were gently rinsed with 10 ml of PBS (Catalog number: 14190144, Gibco) to remove residual media. Next a total of 2 mL TrypLE (Gibco) solution was added, and the flasks containing cells were sat for 3 min at RT, after which, the cells became visibly rounded and were easily dislodged from the bottom of the flask with a few brief taps on a solid surface. A total of 8 mL of media was added to the flask to inactivate the TrypLE, and the mixture was centrifuged at 910 rpm for 4 min. The cell supernatant was decanted, and the cell pellets were resuspended in 5-6 mL of external solution followed by gentle triturations using a 10 ml pipette, and transferred to a 15 ml conical tube and immediately brought to the IW Barracuda instrument.
(§4) Peak membrane currents were analyzed with IW Barracuda software and exported to Excel for further analysis. Concentration response curve fitting was performed with BMS in-house software. IC50 values were obtained by fits of the Hill equation to the average percent inhibition data plotted versus compound concentration. […] Results are reported in Table 1 (NaV1.7 Barra IC50 in nM and NaV1.5 Barra IC50 in nM).
A general note: In patch-clamp work, channel activity is measured electrically.

The target in another series is NaV1.5 (Homo sapiens (Human), UniProt Q14524). The experiment in a line: Automated electrophysiology, IonWorks Barracuda population patch clamp, NaV1.5 current (inactivated-state protocol). It counts as cell-based. As to conditions: HEK 293 cells expressing NaV1.5; read-out: NaV1.5 Barra IC50. The method, then: as §1, §2, §3, §4
Sequence of NaV1.5 (Q14524 whole entry): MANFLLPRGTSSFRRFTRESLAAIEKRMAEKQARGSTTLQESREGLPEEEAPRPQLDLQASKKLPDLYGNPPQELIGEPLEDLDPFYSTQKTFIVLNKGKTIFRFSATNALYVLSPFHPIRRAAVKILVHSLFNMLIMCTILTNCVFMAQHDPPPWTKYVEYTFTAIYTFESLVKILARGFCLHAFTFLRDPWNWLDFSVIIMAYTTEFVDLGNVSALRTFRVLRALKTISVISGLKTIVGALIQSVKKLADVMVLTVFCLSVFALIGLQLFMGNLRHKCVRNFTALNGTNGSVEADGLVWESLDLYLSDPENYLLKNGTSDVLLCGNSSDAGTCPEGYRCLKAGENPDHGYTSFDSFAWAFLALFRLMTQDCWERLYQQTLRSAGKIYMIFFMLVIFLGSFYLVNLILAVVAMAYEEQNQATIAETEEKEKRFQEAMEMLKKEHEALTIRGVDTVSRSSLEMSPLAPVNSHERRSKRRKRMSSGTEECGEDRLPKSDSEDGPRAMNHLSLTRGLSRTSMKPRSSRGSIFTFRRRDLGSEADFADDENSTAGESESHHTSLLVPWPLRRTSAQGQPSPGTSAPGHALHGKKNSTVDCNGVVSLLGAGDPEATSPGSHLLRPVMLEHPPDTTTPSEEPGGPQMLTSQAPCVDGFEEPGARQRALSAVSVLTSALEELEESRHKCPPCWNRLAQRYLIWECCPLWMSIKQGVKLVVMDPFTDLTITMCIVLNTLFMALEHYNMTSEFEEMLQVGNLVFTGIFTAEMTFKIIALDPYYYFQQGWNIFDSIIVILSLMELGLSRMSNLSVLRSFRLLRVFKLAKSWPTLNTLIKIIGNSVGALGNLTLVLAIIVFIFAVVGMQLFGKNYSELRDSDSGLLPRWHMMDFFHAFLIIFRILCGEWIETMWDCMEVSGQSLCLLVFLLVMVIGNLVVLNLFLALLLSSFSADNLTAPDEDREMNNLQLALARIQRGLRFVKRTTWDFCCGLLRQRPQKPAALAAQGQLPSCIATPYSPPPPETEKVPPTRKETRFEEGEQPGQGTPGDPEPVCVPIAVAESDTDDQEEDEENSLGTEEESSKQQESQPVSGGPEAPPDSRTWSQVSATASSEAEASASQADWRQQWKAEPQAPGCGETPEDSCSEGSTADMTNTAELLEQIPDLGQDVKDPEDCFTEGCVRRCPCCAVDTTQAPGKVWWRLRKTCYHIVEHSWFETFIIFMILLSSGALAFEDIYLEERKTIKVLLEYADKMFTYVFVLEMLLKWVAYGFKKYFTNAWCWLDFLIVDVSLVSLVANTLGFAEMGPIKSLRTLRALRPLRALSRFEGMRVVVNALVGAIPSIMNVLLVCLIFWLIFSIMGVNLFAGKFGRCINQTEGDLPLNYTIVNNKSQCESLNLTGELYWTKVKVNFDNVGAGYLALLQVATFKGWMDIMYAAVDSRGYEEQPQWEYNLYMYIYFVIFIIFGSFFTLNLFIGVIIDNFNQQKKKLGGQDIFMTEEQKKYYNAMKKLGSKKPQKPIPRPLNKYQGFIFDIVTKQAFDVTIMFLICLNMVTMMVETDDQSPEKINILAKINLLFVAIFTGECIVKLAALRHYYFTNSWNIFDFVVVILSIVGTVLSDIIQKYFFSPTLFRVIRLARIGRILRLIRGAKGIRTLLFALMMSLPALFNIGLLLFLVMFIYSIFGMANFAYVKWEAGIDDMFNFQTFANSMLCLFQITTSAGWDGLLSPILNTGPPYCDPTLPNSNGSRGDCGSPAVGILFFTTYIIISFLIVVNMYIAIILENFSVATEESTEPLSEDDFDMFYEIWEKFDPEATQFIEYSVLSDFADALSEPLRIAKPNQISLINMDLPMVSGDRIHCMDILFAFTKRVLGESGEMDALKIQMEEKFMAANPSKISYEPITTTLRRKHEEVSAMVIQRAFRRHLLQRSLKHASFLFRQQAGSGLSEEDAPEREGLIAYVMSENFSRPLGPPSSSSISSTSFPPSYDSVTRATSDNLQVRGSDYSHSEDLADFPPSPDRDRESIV

Sequence of NaV1.7 (Q15858 whole entry): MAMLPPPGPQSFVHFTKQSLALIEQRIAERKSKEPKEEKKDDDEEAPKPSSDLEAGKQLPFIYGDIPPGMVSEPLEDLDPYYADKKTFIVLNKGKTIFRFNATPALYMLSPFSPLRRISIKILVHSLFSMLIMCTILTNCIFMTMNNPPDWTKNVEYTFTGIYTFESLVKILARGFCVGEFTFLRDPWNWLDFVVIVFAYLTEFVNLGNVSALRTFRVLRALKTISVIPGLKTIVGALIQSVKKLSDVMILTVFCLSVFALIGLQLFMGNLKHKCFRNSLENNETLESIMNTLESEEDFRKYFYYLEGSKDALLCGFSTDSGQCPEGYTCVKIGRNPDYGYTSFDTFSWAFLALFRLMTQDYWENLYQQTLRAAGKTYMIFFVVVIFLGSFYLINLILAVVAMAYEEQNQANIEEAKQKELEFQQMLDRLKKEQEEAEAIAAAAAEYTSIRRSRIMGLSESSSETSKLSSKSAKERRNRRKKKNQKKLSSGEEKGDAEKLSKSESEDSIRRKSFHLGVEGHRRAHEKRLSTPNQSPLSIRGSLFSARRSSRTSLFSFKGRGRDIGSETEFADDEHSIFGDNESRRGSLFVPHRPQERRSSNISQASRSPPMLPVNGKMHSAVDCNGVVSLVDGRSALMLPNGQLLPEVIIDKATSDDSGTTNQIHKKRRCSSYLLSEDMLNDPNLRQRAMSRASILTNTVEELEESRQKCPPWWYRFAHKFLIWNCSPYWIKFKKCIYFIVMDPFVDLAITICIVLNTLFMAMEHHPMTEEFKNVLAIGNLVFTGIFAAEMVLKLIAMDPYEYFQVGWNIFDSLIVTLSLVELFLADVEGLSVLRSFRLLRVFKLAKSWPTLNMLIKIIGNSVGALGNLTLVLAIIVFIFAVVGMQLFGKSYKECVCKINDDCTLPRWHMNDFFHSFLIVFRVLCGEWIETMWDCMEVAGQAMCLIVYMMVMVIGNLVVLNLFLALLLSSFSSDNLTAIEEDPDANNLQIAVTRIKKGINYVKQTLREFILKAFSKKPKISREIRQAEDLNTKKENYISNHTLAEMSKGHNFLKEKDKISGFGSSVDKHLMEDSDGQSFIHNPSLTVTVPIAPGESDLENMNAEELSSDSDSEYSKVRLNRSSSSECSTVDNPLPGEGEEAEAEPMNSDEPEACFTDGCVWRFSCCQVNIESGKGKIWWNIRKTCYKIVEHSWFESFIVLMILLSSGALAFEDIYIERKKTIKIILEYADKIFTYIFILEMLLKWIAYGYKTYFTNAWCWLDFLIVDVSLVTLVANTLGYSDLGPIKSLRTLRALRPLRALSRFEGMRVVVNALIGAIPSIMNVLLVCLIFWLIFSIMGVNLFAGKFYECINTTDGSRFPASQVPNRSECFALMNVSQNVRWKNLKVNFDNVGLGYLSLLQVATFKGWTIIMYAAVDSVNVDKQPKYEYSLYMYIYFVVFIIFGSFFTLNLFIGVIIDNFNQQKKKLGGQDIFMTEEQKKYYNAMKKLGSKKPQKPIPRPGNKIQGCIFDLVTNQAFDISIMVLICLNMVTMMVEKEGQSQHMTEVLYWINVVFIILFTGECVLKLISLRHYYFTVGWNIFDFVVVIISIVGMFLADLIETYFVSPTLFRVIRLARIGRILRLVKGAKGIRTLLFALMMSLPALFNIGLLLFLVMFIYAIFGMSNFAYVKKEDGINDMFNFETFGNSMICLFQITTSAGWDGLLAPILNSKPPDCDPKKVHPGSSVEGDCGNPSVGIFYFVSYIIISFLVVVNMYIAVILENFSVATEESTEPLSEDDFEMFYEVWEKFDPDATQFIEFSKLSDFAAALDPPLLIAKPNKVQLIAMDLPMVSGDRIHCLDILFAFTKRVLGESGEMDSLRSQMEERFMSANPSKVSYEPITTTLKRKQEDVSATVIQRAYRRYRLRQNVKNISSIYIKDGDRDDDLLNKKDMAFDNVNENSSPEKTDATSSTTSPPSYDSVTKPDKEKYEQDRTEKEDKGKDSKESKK
Sequence of hNaV1.7 (Q15858 whole entry): as above

Usually IC50 stands for the concentration needed to halve the response being measured. Take `Cn1cc(-c2cccc(F)c2F)c2ccc(C(=O)NS(C)(=O)=O)cc21` [Example 3, 3-(2,3-Difluorophenyl)-1-methyl-N-(methylsulfonyl)-1H-indole-6-carboxamide]: the IC50 was 4940 nM on hNaV1.7, 2860 nM at NaV1.7 and above 30 µM at NaV1.5.
For the compound `CCc1ccc(-c2cn(C)c3cc(C(=O)NS(C)(=O)=O)ccc23)cc1` [Example 14, 3-(4-Ethylphenyl)-1-methyl-N-(methylsulfonyl)-1H-indole-6-carboxamide], the figures for the IC50 at hNaV1.7, on NaV1.7 and on NaV1.5 were 554 nM, 173 nM and above 30 µM, respectively.
The like results for `CC(C)COc1ccc(-c2cn(C)c3cc(C(=O)NS(C)(=O)=O)ccc23)cn1` [Example 23, 3-(6-Isobutoxypyridin-3-yl)-1-methyl-N-(methylsulfonyl)-1H-indole-6-carboxamide] were, in that order, 468 nM, 183 nM and above 30 µM.
With `CC(C)COc1ncc(-c2cn(CC(C)C)c3cc(C(=O)NS(=O)(=O)C4CC4)ccc23)cc1Cl` [Example 28, 3-(5-Chloro-6-isobutoxypyridin-3-yl)-N-(cyclopropylsulfonyl)-1-isobutyl-1H-indole-6-carboxamide], the IC50 at NaV1.7 worked out at 8050 nM; at NaV1.5, 11.3 µM.
Turning to `Cn1cc(-c2ccc(C(F)F)cc2)c2ccc(C(=O)NS(=O)(=O)C3CC3)cc21` [Example 31, N-(cyclopropylsulfonyl)-3-(4-(difluoromethyl)phenyl)-1-methyl-1H-indole-6-carboxamide], the IC50 on hNaV1.7 was 321 nM; at NaV1.7, 69 nM; on NaV1.5 it was above 30 µM.
In the case of `Cn1cc(-c2ccc(OC(F)(F)F)cc2)c2ccc(C(=O)NS(C)(=O)=O)cc21` [Example 4, 1-Methyl-N-(methylsulfonyl)-3-(4-(trifluoromethoxy)phenyl)-1H-indole-6-carboxamide], the concentration for half-maximal inhibition (IC50) at hNaV1.7 amounted to 243 nM; on NaV1.7, 80 nM; at NaV1.5, 18.3 µM.
The like results for `CC(C)COc1ncc(-c2cn(C(C)C)c3cc(C(=O)NS(C)(=O)=O)ccc23)cc1Cl` [Example 29, 3-(5-Chloro-6-isobutoxypyridin-3-yl)-1-isopropyl-N-(methylsulfonyl)-1H-indole-6-carboxamide] were, in that order, 89 nM, 703 nM and 1.49 µM.
The like results for `Cn1cc(-c2ccc(C(F)F)cc2)c2cc(F)c(C(=O)NS(C)(=O)=O)cc21` [Example 48, 3-(4-(Difluoromethyl)phenyl)-5-fluoro-1-methyl-N-(methylsulfonyl)-1H-indole-6-carboxamide] were, in that order, 956 nM, 91 nM and above 30 µM.
Consider `Cn1cc(-c2cccc(C(F)(F)F)c2)c2ccc(C(=O)NS(C)(=O)=O)cc21` [Example 13, 1-Methyl-N-(methylsulfonyl)-3-(3-(trifluoromethyl)phenyl)-1H-indole-6-carboxamide], for which the IC50 at hNaV1.7 is 290 nM; on NaV1.7, 1420 nM; on NaV1.5, above 30 µM.
On the same counts, the results for `CCOc1ncc(-c2cn(C)c3cc(C(=O)NS(C)(=O)=O)ccc23)cn1` [Example 9, 3-(2-Ethoxypyrimidin-5-yl)-1-methyl-N-(methylsulfonyl)-1H-indole-6-carboxamide] are above 20000 nM, above 30000 nM and above 30 µM.
For `CC(C)COc1ncc(-c2cn(C)c3cc(C(=O)NS(=O)(=O)N4CCCCC4)ccc23)cc1Cl` [Example 26, 3-(5-Chloro-6-isobutoxypyridin-3-yl)-1-methyl-N-(piperidin-1-ylsulfonyl)-1H-indole-6-carboxamide], the values for the IC50 on NaV1.7 and on NaV1.5 were 4180 nM and 8.77 µM, respectively.
On to `Cn1cc(-c2ccc(C(F)F)cc2)c2cc(F)c(C(=O)NS(=O)(=O)C3CC3)cc21` [Example 49, N-(Cyclopropylsulfonyl)-3-(4-(difluoromethyl)phenyl)-5-fluoro-1-methyl-1H-indole-6-carboxamide], for which the IC50 on hNaV1.7 turned out to be 146 nM; at NaV1.7, 38 nM; at NaV1.5 it was 9.67 µM.
In the case of `Cn1cc(-c2cncc(F)c2)c2ccc(C(=O)NS(C)(=O)=O)cc21` [Example 7, 3-(5-Fluoropyridin-3-yl)-1-methyl-N-(methylsulfonyl)-1H-indole-6-carboxamide], the IC50 is above 30000 nM on NaV1.7 and above 30 µM at NaV1.5.
The like results for `CN(C)S(=O)(=O)NC(=O)c1ccc2c(-c3ccc(C(F)F)cc3)cn(C)c2c1` [Example 32, 3-(4-(Difluoromethyl)phenyl)-N—(N,N-dimethylsulfamoyl)-1-methyl-1H-indole-6-carboxamide] were, in that order, 1910 nM and above 30 µM.
On to `Cn1cc(-c2cccnc2)c2ccc(C(=O)NS(C)(=O)=O)cc21` [Example 8, 1-Methyl-N-(methylsulfonyl)-3-(pyridin-3-yl)-1H-indole-6-carboxamide], for which the IC50 on NaV1.7 is above 30000 nM.
On to `CN(C)S(=O)(=O)NC(=O)c1ccc2c(-c3ccc(C(F)(F)F)cc3)cn(C)c2c1` [Example 33], for which the IC50 on NaV1.7 was 1920 nM; at NaV1.5, 24.5 µM.
As for `CC(C)COc1ncc(-c2cn(C)c3cc(C(=O)NS(=O)(=O)N(C)C)ccc23)cc1Cl` [Example 25, 3-(5-Chloro-6-isobutoxypyridin-3-yl)-N—(N,N-dimethylsulfamoyl)-1-methyl-1H-indole-6-carboxamide], the IC50 on NaV1.7 came to 1280 nM; on NaV1.5, 6.33 µM.
The like results for `CC(C)COc1ncc(-c2cn(CC(C)C)c3cc(C(=O)NS(C)(=O)=O)ccc23)cc1Cl` [Example 27, 3-(5-Chloro-6-isobutoxypyridin-3-yl)-1-isobutyl-N-(methylsulfonyl)-1H-indole-6-carboxamide] were, in that order, 3330 nM and 23.7 µM.
In the case of `CC(C)COc1ccc(-c2cn(C)c3cc(C(=O)NS(C)(=O)=O)ccc23)cc1` [Example 22, 3-(4-Isobutoxyphenyl)-1-methyl-N-(methylsulfonyl)-1H-indole-6-carboxamide], the IC50 on hNaV1.7 came out at 275 nM; on NaV1.7 it was 525 nM.
